Test results as given in patent US20130035326A1 (AMBIT BIOSCIENCES CORPORATION, priority 2009, published 2013).
pIC50, pKd: −log10 of the molar value.

Tests used:
FLT3 kinase = biological target: T1, FLT3 kinase (Homo sapiens, UniProt P36888); assay: Competition binding assay, FLT3 Kd
T1 construct: made in house; host or cells: T7 phage display or HEK-293 cells
T1 sequence (P36888 27-993): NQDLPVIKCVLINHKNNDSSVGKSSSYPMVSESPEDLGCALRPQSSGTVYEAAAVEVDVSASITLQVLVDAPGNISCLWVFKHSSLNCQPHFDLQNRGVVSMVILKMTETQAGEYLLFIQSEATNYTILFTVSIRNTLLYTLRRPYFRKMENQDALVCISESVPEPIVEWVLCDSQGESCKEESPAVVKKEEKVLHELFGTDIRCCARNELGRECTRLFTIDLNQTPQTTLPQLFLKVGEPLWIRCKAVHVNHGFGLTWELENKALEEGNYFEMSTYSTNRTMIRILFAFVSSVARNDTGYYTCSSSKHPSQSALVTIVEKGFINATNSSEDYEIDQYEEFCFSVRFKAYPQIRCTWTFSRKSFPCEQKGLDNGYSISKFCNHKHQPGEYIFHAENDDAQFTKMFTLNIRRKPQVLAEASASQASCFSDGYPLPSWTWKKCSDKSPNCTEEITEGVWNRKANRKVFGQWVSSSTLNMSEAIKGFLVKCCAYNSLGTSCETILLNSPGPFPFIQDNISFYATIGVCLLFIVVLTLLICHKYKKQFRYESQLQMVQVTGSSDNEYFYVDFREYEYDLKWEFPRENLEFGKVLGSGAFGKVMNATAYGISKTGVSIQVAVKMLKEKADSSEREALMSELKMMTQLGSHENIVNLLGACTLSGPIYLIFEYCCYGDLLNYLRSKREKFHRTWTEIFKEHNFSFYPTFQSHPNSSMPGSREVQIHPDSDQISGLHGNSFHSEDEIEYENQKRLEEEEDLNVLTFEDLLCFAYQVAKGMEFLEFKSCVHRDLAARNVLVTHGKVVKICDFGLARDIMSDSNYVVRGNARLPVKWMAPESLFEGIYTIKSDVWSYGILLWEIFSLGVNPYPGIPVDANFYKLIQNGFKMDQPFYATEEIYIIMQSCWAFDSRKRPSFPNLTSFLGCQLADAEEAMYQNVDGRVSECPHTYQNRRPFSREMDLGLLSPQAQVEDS
In short: (§1)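 Steps: biotinylated ligand loaded on streptavidin magnetic beads 30 min; beads blocked with biotin; kinase, beads and compound combined 1 hour at room temperature; beads washed, eluted 30 min with 0.5 μM free ligand; eluted kinase measured by quantitative PCR. Kd derived from eleven-point threefold dilutions.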

KIT kinase = biological target: T2, KIT kinase (Homo sapiens, UniProt P10721); assay: Competition binding assay, KIT Kd
T2 construct: made in house; host or cells: T7 phage display or HEK-293 cells
T2 sequence (P10721 26-976): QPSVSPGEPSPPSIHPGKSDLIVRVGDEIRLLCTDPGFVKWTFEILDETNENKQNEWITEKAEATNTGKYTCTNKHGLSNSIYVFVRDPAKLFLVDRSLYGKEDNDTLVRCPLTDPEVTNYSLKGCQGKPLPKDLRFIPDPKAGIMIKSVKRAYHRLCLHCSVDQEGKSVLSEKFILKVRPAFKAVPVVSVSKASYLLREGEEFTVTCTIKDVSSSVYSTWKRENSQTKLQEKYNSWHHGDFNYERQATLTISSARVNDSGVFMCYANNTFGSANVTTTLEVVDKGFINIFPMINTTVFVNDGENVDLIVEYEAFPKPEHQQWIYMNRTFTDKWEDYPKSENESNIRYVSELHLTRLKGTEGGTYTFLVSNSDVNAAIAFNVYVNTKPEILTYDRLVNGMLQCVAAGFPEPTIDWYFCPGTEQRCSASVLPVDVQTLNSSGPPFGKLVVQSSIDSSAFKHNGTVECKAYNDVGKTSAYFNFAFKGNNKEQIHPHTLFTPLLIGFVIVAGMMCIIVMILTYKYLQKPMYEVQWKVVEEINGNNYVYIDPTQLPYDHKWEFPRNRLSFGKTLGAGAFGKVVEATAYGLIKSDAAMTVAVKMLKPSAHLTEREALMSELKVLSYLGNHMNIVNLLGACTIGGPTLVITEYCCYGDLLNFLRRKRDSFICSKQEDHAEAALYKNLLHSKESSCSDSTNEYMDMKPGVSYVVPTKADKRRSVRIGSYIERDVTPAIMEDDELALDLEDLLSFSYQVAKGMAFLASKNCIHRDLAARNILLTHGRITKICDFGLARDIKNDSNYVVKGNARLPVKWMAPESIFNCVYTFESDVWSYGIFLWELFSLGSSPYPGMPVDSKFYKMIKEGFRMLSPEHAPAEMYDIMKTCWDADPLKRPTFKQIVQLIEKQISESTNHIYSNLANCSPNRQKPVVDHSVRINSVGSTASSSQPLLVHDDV
In short: as §1

CSF-1R kinase = biological target: T3, CSF-1R kinase (Homo sapiens, UniProt P07333); assay: Competition binding assay, CSF-1R Kd
T3 construct: made in house; host or cells: T7 phage display or HEK-293 cells
T3 sequence (P07333 20-972): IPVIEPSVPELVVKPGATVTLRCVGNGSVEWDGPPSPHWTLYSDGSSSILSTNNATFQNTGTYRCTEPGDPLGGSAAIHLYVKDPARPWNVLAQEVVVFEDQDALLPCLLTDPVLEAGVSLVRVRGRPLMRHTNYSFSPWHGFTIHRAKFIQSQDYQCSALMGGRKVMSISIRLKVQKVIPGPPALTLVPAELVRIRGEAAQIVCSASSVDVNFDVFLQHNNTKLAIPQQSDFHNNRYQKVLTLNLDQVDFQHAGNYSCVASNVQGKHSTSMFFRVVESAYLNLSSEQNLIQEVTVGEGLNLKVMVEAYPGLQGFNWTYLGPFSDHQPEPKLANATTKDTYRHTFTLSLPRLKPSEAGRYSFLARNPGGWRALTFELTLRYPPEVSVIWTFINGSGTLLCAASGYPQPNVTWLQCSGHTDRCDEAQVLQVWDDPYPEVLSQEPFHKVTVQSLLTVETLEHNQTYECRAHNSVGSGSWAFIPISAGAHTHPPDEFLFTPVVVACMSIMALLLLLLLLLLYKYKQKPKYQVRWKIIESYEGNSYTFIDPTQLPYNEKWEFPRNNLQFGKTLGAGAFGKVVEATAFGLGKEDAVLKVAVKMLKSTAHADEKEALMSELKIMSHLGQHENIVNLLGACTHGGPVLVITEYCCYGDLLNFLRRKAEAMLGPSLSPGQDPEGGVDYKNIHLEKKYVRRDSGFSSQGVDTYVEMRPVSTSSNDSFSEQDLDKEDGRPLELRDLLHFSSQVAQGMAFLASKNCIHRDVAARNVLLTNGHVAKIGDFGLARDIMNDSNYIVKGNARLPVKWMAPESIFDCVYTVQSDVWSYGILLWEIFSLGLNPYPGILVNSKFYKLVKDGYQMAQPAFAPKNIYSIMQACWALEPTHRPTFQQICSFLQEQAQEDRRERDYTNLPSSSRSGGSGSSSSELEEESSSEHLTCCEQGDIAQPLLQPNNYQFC
In short: as §1

MV4-11 cells = assay: MV4-11 cell proliferation assay (Alamar Blue); assay type: cell-based; settings: 3 days incubation
In short: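 Flt3-ITD MV4-11 cells were serum-starved overnight in Iscove's with 0.5% FBS, then given compound at 9 half-log concentrations (0.5% DMSO) for 3 days at 37° C. Alamar Blue reduction was read after 3 h by fluorescence (560/590 nm). IC50 is the mean of duplicates versus negative control.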

[1] = biological target: kinase panel containing either 359 or 386 distinct kinases; assay: Selectivity score S10 from competition binding against a panel of kinases; settings: compounds at 10 μM; for Kinase specificty: S(10)-386 panel: panel of 386 distinct kinases; for Kinase specificty: S(10)-359 panel: panel of 359 distinct kinases
Experimental: Competition binding assays used herein were developed, validated and performed as described in Fabian et al., Nature Biotechnology 2005, 23,329-336. Kinases were produced as fusions to T7 phage (See, Fabian et al. or WO04/015142) or alternatively, the kinases were expressed in HEK-293 cells and subsequently tagged with DNA for PCR detection (See, WO08/005,310). For the binding assays, streptavidin-coated magnetic beads were treated with biotinylated affinity ligands for 30 min at room temperature to generate affinity resins. The liganded beads were blocked with excess biotin and washed with blocking buffer (SeaBlock (Pierce), 1% BSA, 0.05% Tween 20, 1 mM DTT) to remove unbound ligand and to reduce non-specific binding. Binding reactions were assembled by combining kinase, liganded affinity beads, and test compounds in 1× binding buffer (20% SeaBlock, 0.17×PBS, 0.05% Tween 20, 6 mM DTT). Test compounds were prepared as 100× stocks in DMSO and diluted into the aqueous environment. Kds were determined using an eleven point threefold serial dilutions. DMSO or control compounds were was added to control assays lacking a test compound. Primary screen assays were performed in polypropylene 384-well plates in a final volume of 20-40 μL, while Kd determinations were performed in polystyrene 96-well plates in a final volume of 135 μL. The assay plates were incubated at room temperature with shaking for 1 hour to allow the binding reactions to reach equilibrium, and the affinity beads were washed extensively with wash buffer (1×PBS, 0.05% Tween 20) to remove unbound protein. The beads were then resuspended in elution buffer (1×PBS, 0.05% Tween 20, 0.5 μM non-biotinylated affinity ligand) and incubated at room temperature with shaking for 30 min. The kinase concentration in the eluates was measured by quantitative PCR.
A selectivity score (S10) is a quantitative measure of selectivity of a compound against a panel of kinases. An S10 was calculated for a compound by dividing the number of kinases found to have a percent of control (DMSO) less than 10 by the total number of distinct kinases tested (excluding mutant variants). Percent of control (POC) is calculated by subtracting the signal of the control compound (POC=0) from the signal of the test compound and dividing the outcome by the signal of DMSO (POC=100) minus the signal of the control compound. For the compounds disclosed herein, S10 scores were obtained by testing the compounds at 10 μM concentration in a kinase panel containing either 359 or 386 distinct kinases.

| Molecule | pKd (FLT3 kinase) | pKd (KIT kinase) | pKd (CSF-1R kinase) | pIC50 (MV4-11 cells) | Kinase specificty: S(10)-386 panel [1] | pIC50 (MV4-11 cells; Homo sapiens, MV4-11, 72 h) | Kinase specificty: S(10)-359 panel [1] |
| --- | --- | --- | --- | --- | --- | --- | --- |
| 2-(4-(6-aminopyridin-3-yl)phenyl)-N-(3-tert-butyl-1H-pyrazol-1-yl)acetamide and 2-(4-(6-aminopyridin-3-yl)phenyl)-N-(5-tert-butyl-1H-pyrazol-1-yl)acetamide [Example 91] | ≥ 9.00 | 8.00 to 9.00 | 7.00 to 8.00 | 8.00 to 9.00 | A (A≦0.1) | – | – |
| CC(C)(C)c1cc(NC(=O)Nc2ccc(-c3ccc(N)nc3)cc2)no1 [Example 1, 1-(4-(6-aminopyridin-3-yl)phenyl)-3-(5-tert-butylisoxazol-3-yl)urea] | ≥ 9.00 | ≥ 9.00 | ≥ 8.00 | – | A (A≦0.1) | ≥ 9.00 | A (A≦0.1) |
| CC(C)(C)c1cc(NC(=O)Nc2ccc(-c3cnc(N)c(C#N)c3)cc2)no1 [Example 2, 1-[4-(6-amino-5-cyanopyridin-3-yl)-phenyl]-3-(5-tert-butylisoxazol-3-yl)urea] | ≥ 9.00 | 8.00 to 9.00 | ≥ 8.00 | – | – | ≥ 9.00 | B (0.1<B≦0.2 nM) |
| CC(C)(C)c1cc(NC(=O)Nc2ccc(-c3cnc4c(c3)OCC(=O)N4)cc2)no1 [Example 3, 1-(5-tert-butylisoxazol-3-yl)-3-(4-(3-oxo-3,4-dihydro-2H-pyrido[3,2-b][1,4]oxazin-7-yl)phenyl)urea] | ≥ 9.00 | ≥ 9.00 | ≥ 8.00 | – | – | ≥ 9.00 | A (A≦0.1) |
| CC(C)(C)c1cc(NC(=O)Nc2ccc(-c3cnc4c(c3)OCCN4)cc2)no1 [Example 4, 1-(5-tert-butylisoxazol-3-yl)-3-(4-(3,4-dihydro-2H-pyrido[3,2-b][1,4]oxazin-7-yl)phenyl)urea] | 8.00 to 9.00 | 8.00 to 9.00 | ≥ 8.00 | – | – | 8.00 to 9.00 | B (0.1<B≦0.2 nM) |
| CC(C)(C)c1cc(NC(=O)Nc2ccc(-c3cnc4c(c3)OCC(CCO)N4)cc2)no1 (centres unmarked) [Example 5, 1-(5-tert-butylisoxazol-3-yl)-3-(4-(3-(2-hydroxyethyl)-3,4-dihydro-2H-pyrido[3,2-b][1,4]oxazin-7-yl)phenyl)urea] | ≥ 9.00 | 8.00 to 9.00 | ≥ 8.00 | – | – | ≥ 9.00 | B (0.1<B≦0.2 nM) |
| CC(C)(C)c1cc(NC(=O)Nc2ccc(-c3cnc(NCCN4CCOCC4)c(C#N)c3)cc2)no1 [Example 6, 1-(5-tert-butylisoxazol-3-yl)-3-(4-(5-cyano-6-(2-morpholinoethylamino)pyridin-3-yl)phenyl)urea] | 8.00 to 9.00 | 8.00 to 9.00 | 7.00 to 8.00 | – | – | 8.00 to 9.00 | A (A≦0.1) |
| CC(C)(C)c1cc(NC(=O)Nc2ccc(-c3ccc(NCCN4CCOCC4)nc3)cc2)no1 [Example 7, 1-(5-tert-butyl-isoxazol-3-yl)-3-{4-[6-(2-morpholin-4-yl-ethylamino)-pyridin-3-yl]-phenyl}urea] | ≥ 9.00 | ≥ 9.00 | ≥ 8.00 | – | – | 8.00 to 9.00 | A (A≦0.1) |
| CC(C)(C)c1cc(NC(=O)Nc2ccc(-c3cnc(NCCN4CCOCC4)nc3)cc2)no1 [Example 45, 1-(5-tert-butylisoxazol-3-yl)-3-{4-[2-(2-morpholin-4-yl-ethylamino)-pyrimidin-5-yl]phenyl}urea] | ≥ 9.00 | ≥ 9.00 | ≥ 8.00 | – | – | – | B (0.1<B≦0.2 nM) |
| COc1cc(-c2cnc(N)nc2)ccc1NC(=O)Nc1cc(C(C)(C)C)on1 [Example 48, 1-[4-(2-aminopyrimidin-5-yl)-2-methoxy-phenyl]-3-(5-tert-butylisoxazol-3-yl)-urea] | 8.00 to 9.00 | 8.00 to 9.00 | ≥ 8.00 | – | – | – | A (A≦0.1) |
| CC(C)(C)c1cc(NC(=O)Nc2ccc(-c3cnc(CN4CCOCC4)nc3)cc2)no1 [Example 51, 1-(5-tert-butylisoxazol-3-yl)-3-(4-(2-(morpholinomethyl)pyrimidin-5-yl)phenyl)urea] | 7.00 to 8.00 | 8.00 to 9.00 | 6.30 to 7.00 | – | – | – | A (A≦0.1) |
